Source: US20240287062A1, “NAPHTHYRIDONE COMPOUNDS FOR INHIBITION OF RAF KINASES AND/OR BCR-ABL TYROSINE KINASES” (Enliven Inc., priority 2021, published 2024)

Legend:
[1] = tested on: HepG2 (NRAS Q61L); test: Cell viability assay (CellTiter Glo); type: cell-based; settings: Homo sapiens, HepG2, 120 h, HepG2, 750 cells per well, read-out: BRAF Cytotoxicity (IC50, nM) HEPG2
Description: Cell viability was measured in the following MAPK pathway mutant cancer cell lines: A375 (BRAF V600E), HepG2 (NRAS Q61L), SK-MEL-30 (NRAS Q61K), and OCI-AML-2 (MBNL1-CRAF fusion). Cell viability was also measured in K562 cells.
A375, HepG2, SK-MEL-30 and OCI-AML-2 cells were grown in the appropriate growth medium as described in Table B2 below, and harvested at 50-80% confluence. Cells were counted and seeded at their appropriate density (see Table B1) in a 384-well plate (Corning 3570). A375, HepG2 and SK-MEL-30 were allowed to adhere overnight prior to treatment and the OCI-AML-2 were treated immediately for the indicated drug treatment times (Table 6).
Table 6 provides the growth media, number of cells seeded per well and drug treatment times for the each cell line. K562 cells were grown as described in Example B1 above.
Compounds were dissolved in DMSO and serially diluted. Serially-diluted compound or a DMSO only control (high control, “HC”) was added to the plated cells in each well. Compounds were tested at concentrations of about 10 μM to 0.51 nM, using three-fold dilutions. The final proportion of DMSO never exceeded 0.1%.
Plates were placed in a 37° C., […] incubator for the indicated treatment times (Table B1). Plates were then removed from the incubator and equilibrated for 15 minutes at room temperature. 40 μl of CellTiter Glo reagent (Promega) was added to measure the relative level of metabolically active cells by quantifying intracellular ATP concentrations. Plates were incubated for 30 minutes at room temperature, and luminescence was measured. Percent viability was normalized to a vehicle control only using the following formula: 0 viability=100×(LumSample−LumLC)/(LumHC−LumLC). Graphical curves were fitted using a nonlinear regression model with a sigmoidal dose response.

[2] = biological target: ABL1 (E255K) (Homo sapiens (Human), UniProt P00519, E255K); test: Radioactivity-based ABL kinase assay; type: biochemical; settings: 100 μM 33P-ATP
Description: (§1) The following kinase assay was based on Anastassiadis et al (2011) Nat Biotech, 29:1039-1045. Briefly, ABL kinase substrate (ABLtide: EAIYAAPFAKKK; Genscript) was freshly prepared in reaction buffer (20 mM HEPES pH 7.5, 10 mM MgCl2, 1 mM EGTA, 0.02% Brij-35, 0.02 mg/ml BSA, 0.1 mM Na3VO4, 2 mM DTT, and 1% DMSO) to a final substrate concentration of 20 μM. ABL wild type and ABL mutant kinases were added to the substrate solution and mixed to the final enzyme concentrations shown in Table 3 below.
(§2) Serial dilutions of compounds were prepared in 100% DMSO Compounds or DMSO only (vehicle control) were then added to the kinase reaction mixture and incubated for 20 minutes at room temperature. 100 μM ^33P-ATP (specific activity 10 μCi/μl) was then added to the kinase reaction mixture to initiate the kinase reaction. This mixture was incubated for 2 hours at room temperature. Radioactivity was then measured by radioisotope filter-binding. Kinase activity data were expressed as the percent remaining kinase activity in test samples compared to vehicle control reactions. IC50 values and curve fits were obtained using a nonlinear regression model with a sigmoidal dose response (Prism GraphPad Software).

[3] = biological target: ABL1 (Y253F) (Homo sapiens (Human), UniProt P00519, Y253F); test: Radioactivity-based ABL kinase assay; type: biochemical; settings: 100 μM 33P-ATP
Description: as §1, §2

[4] = biological target: ABL1 (T315I) (Homo sapiens (Human), UniProt P00519, T315I); test: Radioactivity-based ABL kinase assay; type: biochemical; settings: 100 μM 33P-ATP
Description: as §1, §2

[5] = biological target: ABL1 (F317L) (Homo sapiens (Human), UniProt P00519, F317L); test: Radioactivity-based ABL kinase assay; type: biochemical; settings: 100 μM 33P-ATP
Description: as §1, §2

[6] = biological target: ABL1 (M351T) (Homo sapiens (Human), UniProt P00519, M351T); test: Radioactivity-based ABL kinase assay; type: biochemical; settings: 100 μM 33P-ATP
Description: as §1, §2

[7] = biological target: ABL1 (Homo sapiens (Human), UniProt P00519); test: Radioactivity-based ABL kinase assay; type: biochemical; settings: 100 μM 33P-ATP
Description: as §1, §2

[8] = biological target: ABL1 (Y253H) (Homo sapiens (Human), UniProt P00519, Y253H); test: Radioactivity-based ABL kinase assay; type: biochemical; settings: 100 μM 33P-ATP
Description: as §1, §2

[9] = biological target: ABL1 (V299L) (Homo sapiens (Human), UniProt P00519, V299L); test: Radioactivity-based ABL kinase assay; type: biochemical; settings: 100 μM 33P-ATP
Description: as §1, §2

[10] = biological target: ABL1 (F317I) (Homo sapiens (Human), UniProt P00519, F317I); test: Radioactivity-based ABL kinase assay; type: biochemical; settings: 100 μM 33P-ATP
Description: as §1, §2

[11] = biological target: ABL1 (H396P) (Homo sapiens (Human), UniProt P00519, H396P); test: Radioactivity-based ABL kinase assay; type: biochemical; settings: 100 μM 33P-ATP
Description: as §1, §2

[12] = biological target: ABL1 (G250E) (Homo sapiens (Human), UniProt P00519, G250E); test: Radioactivity-based ABL kinase assay; type: biochemical; settings: 100 μM 33P-ATP
Description: as §1, §2

[13] = biological target: ABL1 (E255V) (Homo sapiens (Human), UniProt P00519, E255V); test: Radioactivity-based ABL kinase assay; type: biochemical; settings: 100 μM 33P-ATP
Description: as §1, §2

[14] = biological target: ABL1 (Q252H) (Homo sapiens (Human), UniProt P00519, Q252H); test: Radioactivity-based ABL kinase assay; type: biochemical; settings: 100 μM 33P-ATP
Description: as §1, §2

Compound | IC50 [1] | IC50 [2] | IC50 [3] | IC50 [4] | IC50 [5] | IC50 [6] | IC50 [7] | IC50 [8] | IC50 [9] | IC50 [10] | IC50 [11] | IC50 [12] | IC50 [13] | IC50 [14]
Cc1c(F)cncc1-c1cc2cnc(NC(=O)C3CC3)cc2n(C)c1=O [Compound 2, N-[3-(5-fluoro-4-methylpyridin-3-yl)-1-methyl-2-oxo-1,6-naphthyridin-7-yl]cyclopropanecarboxamide] | 334 nM | 2 nM | < 0.51 nM | 4400 nM | 17 nM | 1.5 nM | 0.61 nM | 0.93 nM | < 0.51 nM | 47 nM | 1.2 nM | 1.5 nM | 0.61 nM | 1.2 nM
Cc1c(F)cncc1-c1cc2cnc(NC(=O)[C@@H]3C[C@@H]3F)cc2n(C)c1=O [Compound 28, (1S,2S)-2-fluoro-N-[3-(5-fluoro-4-methylpyridin-3-yl)-1-methyl-2-oxo-1,6-naphthyridin-7-yl]cyclopropane-1-carboxamide] | 496 nM | 3.4 nM | 0.53 nM | > 500 nM | 107 nM | 4.5 nM | 1.2 nM | 3.6 nM | 0.19 nM | 114 nM | 1.4 nM | 3.7 nM | 1.4 nM | 1.7 nM
